This passage reports IC50 results from US12240862B2, “Inhibitors of peptidylarginine deiminases” (Gilead Sciences, Inc., priority 2020, dated 2025).

T1 sequence (Q9UM07 2-663): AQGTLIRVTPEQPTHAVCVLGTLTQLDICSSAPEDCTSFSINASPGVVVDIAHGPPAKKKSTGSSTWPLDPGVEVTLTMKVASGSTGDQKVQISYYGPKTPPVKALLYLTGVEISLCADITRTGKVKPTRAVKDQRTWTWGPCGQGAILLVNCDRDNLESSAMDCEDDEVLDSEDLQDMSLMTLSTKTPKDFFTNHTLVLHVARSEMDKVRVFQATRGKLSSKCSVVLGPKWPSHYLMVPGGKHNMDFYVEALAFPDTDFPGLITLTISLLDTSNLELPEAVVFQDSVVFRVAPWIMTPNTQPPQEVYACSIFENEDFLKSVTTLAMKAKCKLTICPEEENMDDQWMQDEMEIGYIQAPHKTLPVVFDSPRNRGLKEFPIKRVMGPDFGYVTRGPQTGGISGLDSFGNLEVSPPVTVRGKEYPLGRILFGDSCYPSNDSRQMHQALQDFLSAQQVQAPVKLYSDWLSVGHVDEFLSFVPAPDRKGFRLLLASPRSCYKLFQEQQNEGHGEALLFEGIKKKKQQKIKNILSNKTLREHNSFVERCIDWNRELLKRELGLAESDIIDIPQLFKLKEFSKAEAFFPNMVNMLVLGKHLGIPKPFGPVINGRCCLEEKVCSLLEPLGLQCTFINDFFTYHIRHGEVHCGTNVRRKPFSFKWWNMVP

This assay concerns the target T1, human PAD4 (Homo sapiens, UniProt Q9UM07).
T1 construct: human PAD4 (NM_012387), A2P663, was PCR amplified; His-SUMO (N, cleaved yes); made in house; host or cells: E. coli BL21(DE3)
Kind of assay: In vitro PAD4 BAEE biochemical assay. The following applies: human PAD4, BAEE substrate; 5 nM PAD4, 2 mM calcium chloride, 3 mM BAEE; geometric mean of multiple experiments. The protocol:
The PCR product was ligated into linearized pET-SUMO vector (Invitrogen, Carlsbad, CA), which is part of the Champion™ pET SUMO Protein Expression System. After sequence verification for the correct orientation, the pET-SUMO-hPAD4 expression plasmid was transformed into BL21(DE3) cells.
E. Coli BL21(DE3) cells were inoculated in LB medium with kanamycin at 37° C. until A600 nm reached about 0.5. Protein expression was induced by addition of 0.5 mM IPTG (final) and continued overnight at 16° C. at 220 rpm.
Cells were harvested by centrifugation at 5000 rpm for 10 minutes at 4° C. The pellet was resuspended in 300 ml lysis buffer (20 mM Tris-HCl, pH 8.0, 1 mM EDTA, 500 mM NaCl, 1 mM (tris(2-carboxyethyl)phosphine) (TCEP), 10% glycerol, and 1% Triton X100 and EDTA free protease inhibitor) and lysed by 3× passage through a microfluidizer (Microfluidics, Newton, MA) at 18,000 psi. The cell lysate was clarified by centrifugation at 30,000 rpm for 60 minutes at 4° C. […] Bound protein was eluted with a 0-100% linear gradient of 100 mL Ni-B buffer (Ni A buffer+0.5 M Imidazole).
The protein was then reloaded onto a Ni—HP column for a reverse purification step and recovered in flow through fraction. The protein with His-Sumo tag removed was then polished using a 16/60 Superdex-200 gel filtration column with gel filtration buffer (20 mM Tris pH 8.0, NaCl 400 mM and 1 mM TCEP). The fractions containing the protein were pulled and frozen at −80° C.
The enzymatic activity of human PAD4 was monitored in a biochemical assay in the presence or absence of compounds using the small peptidyl arginine mimic BAEE (Na-Benzoyl-L-arginine ethyl ester hydrochloride) as substrate. PAD4 activity led to deamination of BAEE and release of ammonia. Levels of ammonia were monitored by using an amine coupling reaction and were indicative of PAD4 enzymatic activity.
One hundred nanoliters of test compounds dissolved in DMSO at various concentrations were dispensed into a 384-well black OptiPlate using a Labcyte Echo instrument. Ten microliters of a solution of recombinant PAD4 and calcium chloride diluted in PAD4 assay buffer (50 mM MOPS [3-(N-morpholino) propanesulfonic acid], pH 7.6; 50 mM sodium chloride; 0.05% Tween-20; 2 mM dithiothreitol) was added to the compound-containing plate and was incubated for 30 minutes at 25° C. Ten microliters of a solution of BAEE (Sigma-Aldrich #B4500) diluted in PAD4 assay buffer was then added to start the reaction. Final concentrations were 5 nM PAD4, 2 mM calcium chloride, and 3 mM BAEE. The reaction mixture was incubated at 25° C. for 2 hours and was stopped with the addition of 10 microliters of a solution of 75 mM EDTA (Ethylenediaminetetraacetic acid) in PAD4 assay buffer. Thirty microliters of detection solution (5 mM o-phthalaldehyde, 50 mM MOPS [3-(N-morpholino) propanesulfonic acid], pH 7.6; 50 mM sodium chloride; 0.05% Tween-20; 5 mM dithiothreitol) was then added and the reaction was incubated for 1 hour at 25° C.
In the case of `COc1cc(C(=O)N2[C@H]3CC[C@@H]2[C@H](N)C3)cc2nc(-c3cc4ccc([C@@H](C)NC(=O)c5cc6n(c5)CCOC6)nc4n3CC3CC3)c(C)n12` [Example 62, ~{N}-[(1~{R})-1-[2-[7-[(1~{R},2~{R}, 4~{S})-2-amino-7-azabicyclo[2.2.1]heptane-7-carbonyl]-5-methoxy-3-methylimidazo [1,2-a]pyridin-2-yl]-1-(cyclopropylmethyl)pyrrolo[2,3-b]pyridin-6-yl]ethyl]-3,4-dihydro-1~{H}-pyrrolo [2,1-c][1,4]oxazine-7-carboxamide], the IC50 is 0.0483 µM.
Next, `COc1cc(C(=O)N2[C@H]3CC[C@@H]2[C@H](N)C3)cc2nc(-c3cc4ccc([C@@H](C)N(C)C(=O)c5ccccc5)nc4n3CC3CC3)c(C)n12` [Example 185, ~{N}-[(1~{R})-1-[2-[7-[(1~{R},2~{R},4~{S})-2-amino-7-azabicyclo[2.2.1]heptane-7-carbonyl]-5-methoxy-3-methylimidazo [1,2-a]pyridin-2-yl]-1-(cyclopropylmethyl)pyrrolo [2,3-b]pyridin-6-yl]ethyl]-~{N}-methylbenzamide]: 0.139 µM; `COc1cc(C(=O)N2[C@H]3CC[C@@H]2[C@H](N)C3)cc2nc(-c3cc4ccc([C@@H](C)NC(=O)c5cccn(C)c5=O)nc4n3CC3CC3)c(C)n12` [Example 30, ~{N}-[(1~{R})-1-[2-[7-[(1~{R}, 2~{R},4~{S})-2-amino-7-azabicyclo [2.2.1]heptane-7-carbonyl]-5-methoxy-3-methylimidazo [1,2-a]pyridin-2-yl]-1-(cyclopropylmethyl)pyrrolo[2,3-b]pyridin-6-yl]ethyl]-1-methyl-2-oxopyridine-3-carboxamide]: 0.0824 µM.
In the case of `COc1cc(C(=O)N2CCC[C@@H](N)C2)cc2nc(-c3cc4ccc([C@@H](C)NC(=O)[C@H]5[C@@H]6CC(F)(F)C[C@@H]65)nc4n3CC3CC3)c(C)n12` [Example 9, (1~{R},5~{S})-~{N}-[(1~{R})-1-[2-[7-[(3~{R})-3-aminopiperidine-1-carbonyl]-5-methoxy-3-methylimidazo[1,2-a]pyridin-2-yl]-1-(cyclopropylmethyl)pyrrolo[2,3-b]pyridin-6-yl]ethyl]-3,3-difluorobicyclo[3.1.0] hexane-6-carboxamide], the IC50 was 0.028 µM.
With `COc1cc(C(=O)N2CCC[C@@H](N)C2)cc2nc(-c3cc4ccc([C@@H](C)NC(=O)OCC(C)(C)C)nc4n3CC3CC3)c(C)n12` [Example 256, 2,2-dimethylpropyl~{N}-[(1~{R})-1-[2-[7-[(3~ {R})-3-aminopiperidine-1-carbonyl]-5-methoxy-3-methylimidazo[1,2-a]pyridin-2-yl]-1-(cyclopropylmethyl)pyrrolo [2,3-b]pyridin-6-yl]ethyl] carbamate] the figure was 0.486 µM.
With `CS(=O)(=O)N(c1ccc2cc(-c3nc4cc(C(=O)N5[C@@H]6CC[C@@H](N)[C@H]5CC6)ccn4c3C3CC3)n(CC3CC3)c2n1)C(F)F` [Example 397] the figure was 0.0748 µM.
In the case of `CC(C)c1c(-c2cc3ccc(N(C(F)F)S(C)(=O)=O)nc3n2CC2CC2)nc2cc(C(=O)N3CCC[C@@H](N)C3)ccn12` [Example 433, ~{N}-[2-[7-[(3~{R})-3-aminopiperidine-1-carbonyl]-3-propan-2-ylimidazo[1,2-a]pyridin-2-yl]-1-(cyclopropylmethyl)pyrrolo [2,3-b]pyridin-6-yl]-~{N}-(difluoromethyl) methanesulfonamide], the concentration for half-maximal inhibition (IC50) stood at 7.04 µM.
Turning to `COc1cc(C(=O)N2C[C@H]3CC[C@@H]2[C@@H]3N)cc2nc(-c3cc4ccc([C@@H](C)NC(=O)[C@H]5CC5(F)F)nc4n3CC3CC3)c(C)n12` [Example 100, (R)-N-((R)-1-(2-(7-((1R,4R,7R)-7-amino-2-azabicyclo[2.2.1]heptane-2-carbonyl)-5-methoxy-3-methylimidazo[1,2-a]pyridin-2-yl)-1-(cyclopropylmethyl)-1H-pyrrolo[2,3-b]pyridin-6-yl)ethyl)-2,2-difluorocyclopropane-1-carboxamide], the half-inhibitory concentration (IC50) turned out to be 0.0767 µM.
Next, `COc1cc(C(=O)N2[C@H]3CC[C@@H]2[C@H](N)C3)cc2nc(-c3cc4ccc(C(O)C(F)(F)F)nc4n3CC3CC3)c(C)n12` (stereo partly shown) [Example 569, [(1~{R},2~{R},4~{S})-2-amino-7-azabicyclo [2.2.1]heptan-7-yl]-[2-[1-(cyclopropylmethyl)-6-(2,2,2-trifluoro-1-hydroxyethyl)pyrrolo [2,3-b]pyridin-2-yl]-5-methoxy-3-methylimidazo[1,2-a]pyridin-7-yl]methanone]: 0.145 µM; `COc1cc(C(=O)N2[C@H]3CC[C@@H]2[C@H](N)C3)cc2nc(-c3cc4ccc([C@@H](C)NC(=O)Nc5c(C)cccc5C)nc4n3CC3CC3)c(C)n12` [Example 238, 1-[(1~{R})-1-[2-[7-[(1~{R},2~{R},4~{S})-2-amino-7-azabicyclo[2.2.1]heptane-7-carbonyl]-5-methoxy-3-methylimidazo [1,2-a]pyridin-2-yl]-1-(cyclopropylmethyl)pyrrolo [2,3-b]pyridin-6-yl]ethyl]-3-(2,6-dimethylphenyl)urea]: 0.145 µM; `COc1cc(C(=O)N2CC[C@@H](OC)[C@@H](N)C2)cc2nc(-c3cc4ccc([C@@H](C)NC(=O)c5ccccc5)nc4n3CC3CC3)c(C)n12` [Example 114, ~{N}-[(1~{R})-1-[2-[7-[(3~{S},4~{R})-3-amino-4-methoxypiperidine-1-carbonyl]-5-methoxy-3-methylimidazo [1,2-a]pyridin-2-yl]-1-(cyclopropylmethyl)pyrrolo [2,3-b]pyridin-6-yl]ethyl]benzamide]: 0.22 µM.
Next, `CC[C@@](C)(O)c1ccc2cc(-c3nc4cc(C(=O)N5[C@H]6CC[C@@H]5[C@H](N)C6)cc(OC)n4c3C)n(CC3CC3)c2n1` [Example 566, [(1~{R},2~{R},4~{S})-2-amino-7-azabicyclo [2.2.1]heptan-7-yl]-[2-[1-(cyclopropylmethyl)-6-[(2~{R})-2-hydroxybutan-2-yl]pyrrolo[2,3-b]pyridin-2-yl]-5-methoxy-3-methylimidazo [1,2-a]pyridin-7-yl]methanone]: 0.123 µM.
Next, `COc1cc(C(=O)N2[C@H]3CC[C@@H]2[C@H](N)C3)cc2nc(-c3cc4ccc([C@@H](C)NC(=O)C(C)(C)CO)nc4n3CC3CC3)c(C)n12` [Example 134]: 0.0665 µM; `COc1cc(C(=O)N2[C@H]3CC[C@@H]2[C@H](N)C3)cc2nc(-c3cc4ccc([C@@H]5CCNC(=O)C5)nc4n3CC3CC3)c(C)n12` [Example 555, (4~{R})-4-[2-[7-[(1~{R},2~{R},4~{S})-2-amino-7-azabicyclo[2.2.1]heptane-7-carbonyl]-5-methoxy-3-methylimidazo [1,2-a]pyridin-2-yl]-1-(cyclopropylmethyl)pyrrolo [2,3-b]pyridin-6-yl]piperidin-2-one]: 0.0693 µM; `CCc1ccc2cc(-c3nc4cc(C(=O)N5CCC[C@@H](N)C5)cc(OC)n4c3N)n(CC3CC3)c2n1` [Example 553, [3-amino-2-[1-(cyclopropylmethyl)-6-ethylpyrrolo[2,3-b]pyridin-2-yl]-5-methoxyimidazo [1,2-a]pyridin-7-yl]-[(3~{R})-3-aminopiperidin-1-yl]methanone]: 0.757 µM.
For the compound `COc1cc(C(=O)N2[C@H]3CC[C@@H]2[C@H](N)C3)cc2nc(-c3cc4ccc(N5C(=O)CCCC5C)nc4n3CC3CC3)c(C)n12` (stereo partly shown) [Example 456, 1-[2-[7-[(1~{R},2~{R}, 4~{S})-2-amino-7-azabicyclo[2.2.1]heptane-7-carbonyl]-5-methoxy-3-methylimidazo[1,2-a]pyridin-2-yl]-1-(cyclopropylmethyl)pyrrolo[2,3-b]pyridin-6-yl]-6-methylpiperidin-2-one], the IC50 turned out to be 0.25 µM.

For orientation: IC50 means the midpoint of a concentration-inhibition curve.
